Literature values, collected in patent publication US20020035459A1, “PHARMACOKINETIC-BASED DRUG DESIGN TOOL AND METHOD” (priority 1998, published 2002).

Tests used:
intestinal mucosa = conditions: permeability standards
rabbit intestinal tissue = conditions: donor concentration per compound; for Pe Colon: rabbit colon; for Pe Duodenum: rabbit duodenum; for Pe Ileum: rabbit ileum; for Pe Jejunum: rabbit jejunum
[1] = plasma kinetics, first order transfer

SMILES	Transport mechanism (intestinal mucosa)	Pe Colon (rabbit intestinal tissue)	Pe Duodenum (rabbit intestinal tissue)	Pe Ileum (rabbit intestinal tissue)	Pe Jejunum (rabbit intestinal tissue)	k21 [1]
OC[C@@H](O)[C@@H](O)[C@H](O)[C@H](O)CO [mannitol]	Passive Paracellular	5.53 ×10⁻⁶ cm/s	1.73 ×10⁻⁶ cm/s	4.02 ×10⁻⁶ cm/s	3.54 ×10⁻⁶ cm/s	
C[C@]12CCC(=O)C=C1CC[C@@H]1[C@@H]2[C@@H](O)C[C@@]2(C)[C@H]1CC[C@]2(O)C(=O)CO [hydrocortisone]		3.85 ×10⁻⁶ cm/s	0.3 ×10⁻⁶ cm/s	2.91 ×10⁻⁶ cm/s	1.31 ×10⁻⁶ cm/s	
Nc1nc2c(ncn2COC(CO)CO)c(=O)[nH]1.[Na] [Gancyclovir, 9-(1,3-dihydroxy-2-propoxymethyl)guanine, monosodium salt]						0.670
O=C[C@H](O)[C@@H](O)[C@H](O)[C@H](O)CO [D-glucose]	Carrier-mediated Influx	9.28 ×10⁻⁶ cm/s	4.55 ×10⁻⁶ cm/s	14.5 ×10⁻⁶ cm/s	10.2 ×10⁻⁶ cm/s	
